# Like-named read-outs stand apart in the source and are kept apart here.
# Key:
# [1] = MTT cytotoxicity assay, human 1321N1 astrocytoma cell line; assay type: cell-based; conditions: human, 1321N1 astrocytoma cells, final concentration of 50 μM
# Protocol: (§1) Cellular safety profiling of adamantane thioureas were done through MTT assay. All compounds were analyzed for toxicity at final concentration of 50 μM. […] Toxicity was determined against two cancer cell lines including human 1321N1 Astrocytoma cell line, HeLa cell line and a normal HEK-293 cell line.
# (§2) c. Cell Viability Assay (MTT Assay)
# (§3) After 24 h of incubation at 37° C. in CO2 incubator, culture media will be replaced with serum-free media along with test compounds and re-incubate. After 24 h, media will be removed and add 100 μL of MTT reagent (0.5-5 mg/mL) and will be incubated for a further 4 h, at 37° C. Absorbance will be measured at 570 and 630 nm to calculate cell viability.
# h-P2X7 [2] = target: T1, h-P2X7 (Homo sapiens, UniProt Q99572); experiment: Ca2+ flux assay h-P2X7; conditions: for inhibition at 50 µM: read-out: h-P2X7 % Inhibition; for IC50: read-out: h-P2X7 IC50 ± SEM, Ca2+ flux, n = 3
# T1 sequence (Q99572 1-595): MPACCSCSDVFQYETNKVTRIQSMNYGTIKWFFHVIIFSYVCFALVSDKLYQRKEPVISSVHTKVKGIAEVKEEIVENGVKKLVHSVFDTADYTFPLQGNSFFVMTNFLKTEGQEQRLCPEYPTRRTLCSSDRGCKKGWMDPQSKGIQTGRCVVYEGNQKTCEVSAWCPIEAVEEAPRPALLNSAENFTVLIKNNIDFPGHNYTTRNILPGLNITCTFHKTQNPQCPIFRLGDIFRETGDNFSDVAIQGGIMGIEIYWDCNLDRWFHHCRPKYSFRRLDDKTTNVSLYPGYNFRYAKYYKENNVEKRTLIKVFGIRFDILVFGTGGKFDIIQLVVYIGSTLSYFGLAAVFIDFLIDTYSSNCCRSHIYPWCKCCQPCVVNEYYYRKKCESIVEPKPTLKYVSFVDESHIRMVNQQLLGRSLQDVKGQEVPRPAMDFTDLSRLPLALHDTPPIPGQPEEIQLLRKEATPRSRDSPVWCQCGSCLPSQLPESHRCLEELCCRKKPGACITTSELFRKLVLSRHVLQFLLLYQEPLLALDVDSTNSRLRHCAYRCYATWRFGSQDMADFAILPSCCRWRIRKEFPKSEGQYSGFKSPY
# Protocol: (§5) Compounds were initially analyzed at a final concentration of about 50 μM and percentage of inhibition was calculated.
# (§6) Calcium Mobilization Assay to Measure P2X Receptors Response Cell Culture: P2X receptors functions can be analyzed from ATP-induced increase in cytosolic Ca^2+ concentration. Two Ca^2+ chelating dyes, Fura-2 AM and Fluo-4 AM can be used to determine the intracellular Ca^2+ concentration through a fluorescent imaging micro-titer plate reader (BMG Labtech: FLUOstar Galaxy®). Non-transfected human 1321N1 astrocytoma cells, as well as P2X receptors transfected human 1321N1 astrocytoma cells will be cultured in T-75 cm^2 cell culture flask having appropriate cell culture growth media; Dulbecco's Modified Eagle's medium (DMEM) supplemented with 10% fetal bovine serum (FBS), 75 μg/mL of Hygromycin B or human P2X receptors transfected cell lines and 1% pen-strep (antibiotics). Cells will be incubated at 37° C. in 5% CO2 incubator until 80 to 90% cell confluency will be achieved. Cells will be maintained in an exponential growth phase throughout the experiment and closely monitored for contamination.
# Measurement of Ca^2+ Flux
# (§7) When 1321N1 cells will reach 80 to 90% of confluency, cells will be harvested from T-75 cm^2 flask by trypsinization. After washing the cells with phosphate buffer saline (PBS), cells will be seeded at a density of 20,000 cells/well in black, clear bottom, poly-D-lysine coated 96 well plate. After 16 to 24 h, cell culture media will be removed and add Hank's balanced salt solution (HBSS) containing 3 μM Ca^2+ chelating dyes Fura-2 AM or Fluo-4 AM. After 1 h of incubation at 23° C., the loading dye solution will be removed, and added seven to eight dilutions of test compounds in triplicate format. ATP (at a concentration value of EC80) or buffer will be added and measured the excitation and emission at 340/520 nm and 380/520 nm through FLUOStar Galaxy®. Assay volume for the experiment will be 200 μL. IC50 and EC50 values will be calculated by PRISM 5.0 (GrapgPad, San Diego, Calif., USA) through non-linear regression analysis.
# h-P2X4 [3] = target: T2, h-P2X4 (Homo sapiens, UniProt Q99571); experiment: Mode of receptor inhibition, ATP dose-response curve at h-P2X4R; assay type: cell-based; design: expressed in transfected cells; host or cells: human 1321N1 astrocytoma cells
# T2 sequence (Q99571 1-388): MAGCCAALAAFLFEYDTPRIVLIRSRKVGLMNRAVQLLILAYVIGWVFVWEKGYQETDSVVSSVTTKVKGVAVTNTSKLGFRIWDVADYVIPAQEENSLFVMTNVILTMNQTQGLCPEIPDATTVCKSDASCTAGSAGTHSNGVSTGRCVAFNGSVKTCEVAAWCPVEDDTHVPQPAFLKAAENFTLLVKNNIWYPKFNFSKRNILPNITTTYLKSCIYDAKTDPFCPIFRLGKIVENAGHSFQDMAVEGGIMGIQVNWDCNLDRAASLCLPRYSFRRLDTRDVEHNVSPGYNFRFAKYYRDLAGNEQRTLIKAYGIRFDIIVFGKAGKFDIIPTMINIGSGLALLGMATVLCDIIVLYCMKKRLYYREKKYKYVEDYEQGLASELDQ
# Protocol: (§4) Different dilutions of compounds were administered to receptors expressed cell line.
# h-P2X5 = h-P2X5 (Homo sapiens, UniProt Q93086); experiment: Ca2+ flux assay h-P2X5; conditions: for inhibition at 50 µM: read-out: h-P2X5 % Inhibition
# Sequence of h-P2X5 (Q93086 whole entry): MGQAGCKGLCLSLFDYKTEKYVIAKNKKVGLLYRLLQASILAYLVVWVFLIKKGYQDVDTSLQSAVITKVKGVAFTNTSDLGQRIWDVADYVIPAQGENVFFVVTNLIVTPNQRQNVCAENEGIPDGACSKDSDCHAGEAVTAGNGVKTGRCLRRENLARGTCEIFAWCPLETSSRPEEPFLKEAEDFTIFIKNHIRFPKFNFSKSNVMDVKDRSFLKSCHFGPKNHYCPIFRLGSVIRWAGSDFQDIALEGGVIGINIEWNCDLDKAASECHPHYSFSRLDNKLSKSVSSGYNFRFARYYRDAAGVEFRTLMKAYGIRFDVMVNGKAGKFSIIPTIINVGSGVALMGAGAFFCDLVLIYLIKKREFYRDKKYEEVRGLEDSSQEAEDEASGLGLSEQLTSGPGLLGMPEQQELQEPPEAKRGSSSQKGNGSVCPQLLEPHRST
# Protocol: as §5, §6
# Measurement of Ca^2+ Flux
# as §7
# [4] = MTT cytotoxicity assay, HEK-293 cell line; assay type: cell-based; conditions: human, HEK-293 cells, final concentration of 50 μM
# Protocol: as §1, §2, §3
# h-P2X2 = target: T3, h-P2X2 (Homo sapiens, UniProt Q9UBL9); experiment: Ca2+ flux assay h-P2X2; conditions: for inhibition at 50 µM: read-out: h-P2X2 % Inhibition; for IC50: read-out: h-P2X2 IC50 ± SEM, Ca2+ flux, n = 3
# T3 sequence (Q9UBL9 1-471): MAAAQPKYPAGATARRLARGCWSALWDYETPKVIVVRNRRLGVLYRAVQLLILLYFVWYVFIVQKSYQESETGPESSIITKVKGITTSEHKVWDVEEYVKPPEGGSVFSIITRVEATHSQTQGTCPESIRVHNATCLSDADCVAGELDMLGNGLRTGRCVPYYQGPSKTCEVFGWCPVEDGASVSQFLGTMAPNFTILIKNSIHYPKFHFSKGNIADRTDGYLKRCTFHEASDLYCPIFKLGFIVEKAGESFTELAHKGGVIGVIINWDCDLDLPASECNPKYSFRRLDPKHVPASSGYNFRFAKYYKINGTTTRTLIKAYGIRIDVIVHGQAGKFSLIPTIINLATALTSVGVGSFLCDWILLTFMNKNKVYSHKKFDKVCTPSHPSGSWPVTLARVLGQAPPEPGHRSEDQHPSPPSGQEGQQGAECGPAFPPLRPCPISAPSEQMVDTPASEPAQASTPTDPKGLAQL
# Protocol: as §5, §6
# Measurement of Ca^2+ Flux
# as §7
# [5] = MTT cytotoxicity assay, HeLa cell line; assay type: cell-based; conditions: human, HeLa cells, final concentration of 50 μM
# Protocol: as §1, §2, §3
# h-P2X4 [6] = target: T2, h-P2X4; experiment: Ca2+ flux assay h-P2X4; conditions: for inhibition at 50 µM: read-out: h-P2X4 % Inhibition
# Protocol: as §5, §6
# Measurement of Ca^2+ Flux
# as §7
# h-P2X7 [7] = target: T1, h-P2X7; experiment: Mode of receptor inhibition, BzATP dose-response curve at h-P2X7R; assay type: cell-based; design: expressed in transfected cells; host or cells: human 1321N1 astrocytoma cells; conditions: BzATP without inhibitor; read-out: EC50 of BzATP induced response
# Protocol: as §4
# h-P2X7 [8] = target: T1, h-P2X7; experiment: BzATP induced Ethidium Bromide dye-uptake assay (pore formation); assay type: cell-based; design: expressed in transfected cells; host or cells: human 1321N1 astrocytoma cells
# Excerpt: This is a specific assay to access the activities of P2X7R. Prolong exposure of P2X7R leads to pore formation that results intake of large molecular weight dye through this pore. An inhibitor of P2X7R inhibits this pore formation that confirms the inhibitory potential of compounds.
# e. Ethidium Bromide Dye-Uptake Assay for P2X7 Receptors: (Pore Formation)
# Human astrocytoma 1321N1 cells stably expressing P2X7 receptors will be seeded in the black wall, clear bottom and poly-D-lysine coated 96 wells plate at a cell density of 20,000 cells/well. After 24 h of incubation, culture medium will be removed, and wash the cells with dye uptake buffer. Cells will be treated with ethidium bromide with the subsequent addition of different concentrations of Bz-ATP to 96 wells plate in triplicate format. […] For screening of P2X7 receptor antagonists, cells will be treated with different concentrations of test compounds for 15 min at 37° C. before the addition of Bz-ATP.
# [9] = tested on: human 1321N1 Astrocytoma cell line; experiment: MTT cytotoxicity assay, human 1321N1 astrocytoma cell line; assay type: cell-based; conditions: final concentration of 50 μM
# Protocol: as §1, §2, §3
# HEK-293 cell line = experiment: MTT cytotoxicity assay, HEK-293 cell line; assay type: cell-based; conditions: final concentration of 50 μM
# Protocol: as §1, §2, §3
# HeLa cell line = experiment: MTT cytotoxicity assay, HeLa cell line; assay type: cell-based; conditions: final concentration of 50 μM
# Protocol: as §1, §2, §3
# [10] = read-out: h-P2X4 IC50 ± SEM, Ca2+ flux, n = 3
Structure (SMILES),"cytotoxicity at 24 h, 50 µM [1]",inhibition at 50 µM (h-P2X7 [2]),inhibition at 50 µM (h-P2X5),"cytotoxicity at 24 h, 50 µM [4]",inhibition at 50 µM (h-P2X2),"cytotoxicity at 24 h, 50 µM [5]",IC50 (h-P2X4 [6]; [10]),IC50 (h-P2X7 [2]),IC50 (h-P2X2),also measured
"CC(C)c1ccc(NC(=S)NC(=O)C23CC4CC(CC(C4)C2)C3)c(Br)c1 [Ip, N-((2-bromo-4-isopropylphenyl)carbamothioyl)adamantane-1-carboxamide]",19.7%,42.5%,12.4%,20.6%,30.2%,23.5%,0.04 ± 0.01 µM,,,"mechanism of receptor inhibition (h-P2X4 [3]; h-P2X4R expressed cell line, different dilutions of compound): negative allosteric modulators"
"Nc1ncnc2c1ncn2[C@@H]1O[C@H](COP(=O)(O)OP(=O)(O)OP(=O)(O)O)[C@@H](OC(=O)c2ccc(C(=O)c3ccccc3)cc2)[C@H]1O [BzATP, reference compound]",,,,,,,,,,EC50 (h-P2X7 [7]): 7.09 µM
"O=C(NC(=S)Nc1cccnc1Cl)C12CC3CC(CC(C3)C1)C2 [If, N-((2-chloropyridin-3-yl)carbamothioyl)adamantane-1-carboxamide]",11.4%,,25.5%,4.95%,13.2%,5.21%,1.27 ± 0.11 µM,0.099 ± 0.07 µM,,"Emax at 20 µM (h-P2X7 [8]; read-out: Emax % (at 20 μM inhibitor concentration), BzATP induced Ethidium Bromide dye uptake, 20 μM inhibitor concentration, BzATP without inhibitor = 100): 47%; IC50 (h-P2X7 [8]; serial dilution curves, read-out: IC50 ± SEM, BzATP induced Ethidium Bromide dye uptake): 0.31 ± 0.07 µM"
"Cc1nc(N=Nc2ccc(S(=O)(=O)O)cc2S(=O)(=O)O)c(COP(=O)(O)O)c(C=O)c1O [PPADS, reference compound]",,,,,,,,,,Human 1321N1 Astrocytoma Cell Line (% cytotoxicity) [9]: 19.02%; HEK-293 Cell Line (% cytotoxicity) (HEK-293 cell line): 42.58%; HeLa Cell Line (% cytotoxicity) (HeLa cell line): 17.92%
"Nc1c(S(=O)(=O)O)cc(Nc2ccc(Nc3nc(Cl)nc(Nc4cccc(S(=O)(=O)O)c4)n3)c(S(=O)(=O)O)c2)c2c1C(=O)c1ccccc1C2=O [Reactive Blue 2, reference compound]",,,,,,,,2.79 ± 0.22 µM,0.89 ± 0.41 µM,Human 1321N1 Astrocytoma Cell Line (% cytotoxicity) [9]: 20.82%; HEK-293 Cell Line (% cytotoxicity) (HEK-293 cell line): 39.89%; HeLa Cell Line (% cytotoxicity) (HeLa cell line): 14.47%
"Nc1ncnc2c1ncn2[C@@H]1O[C@H](COP(=O)(O)OP(=O)(O)OP(=O)(O)O)[C@@H](O)[C@H]1O [ATP, reference compound]",,,,,,,,,,"EC50 (h-P2X4 [3]; ATP without inhibitor, read-out: EC50 of ATP induced response): 5.45 µM"
"CC(C)c1cc(Br)c(NC(=O)Nc2cccnc2)c(Br)c1 [BX-430, reference compound]",,,,,,,,,,Human 1321N1 Astrocytoma Cell Line (% cytotoxicity) [9]: 20.21%; HEK-293 Cell Line (% cytotoxicity) (HEK-293 cell line): 2.85%; HeLa Cell Line (% cytotoxicity) (HeLa cell line): 9.12%
"COc1ccc(NC(=S)NC(=O)C23CC4CC(CC(C4)C2)C3)cc1 [Ij, N-((4-methoxyphenyl)carbamothioyl)adamantane-1-carboxamide]",4.56%,29.4%,44.5%,10.6%,,8.01%,,,5.24 ± 0.32 µM,inhibition at 50 µM (h-P2X4 [6]): 44.9%
"COc1cccc(NC(=S)NC(=O)C23CC4CC(CC(C4)C2)C3)c1 [Ii, N-((3-methoxyphenyl)carbamothioyl)adamantane-1-carboxamide]",6.53%,15.1%,44%,20.7%,,18.1%,,,2.31 ± 0.31 µM,inhibition at 50 µM (h-P2X4 [6]): 38%
"O=C(NC(=S)Nc1cc([N+](=O)[O-])ccc1Cl)C12CC3CC(CC(C3)C1)C2 [Ih, N-((2-chloro-5-nitrophenyl)carbamothioyl)adamantane-1-carboxamide]",20.5%,,32.1%,24.6%,,8.66%,1.29 ± 0.09 µM,2.53 ± 0.72 µM,4.58 ± 0.21 µM,
"CN(C)CCCNC(=S)NC(=O)C12CC3CC(CC(C3)C1)C2 [Ir, N-((3-(dimethylamino)propyl)carbamothioyl)adamantane-1-carboxamide]",10.1%,5.01%,11.2%,5.16%,2.15%,8.14%,,,,inhibition at 50 µM (h-P2X4 [6]): 0%
"COc1ccc(NC(=S)NC(=O)C23CC4CC(CC(C4)C2)C3)cc1OC [Ik, N-((3,4-dimethoxyphenyl)carbamothioyl)adamantane-1-carboxamide]",19.4%,,,7.2%,,14.3%,3.46 ± 0.4 µM,4.9 ± 1.04 µM,0.732 ± 0.01 µM,IC50 (h-P2X5): 1.48 ± 0.23 µM
"O=C(NC(=S)Nc1cc(Br)ccc1Br)C12CC3CC(CC(C3)C1)C2 [Iq, N-((2,5-dibromophenyl)carbamothioyl)adamantane-1-carboxamide]",21.2%,11.2%,16.2%,14.8%,41.1%,20.7%,,,,IC50 (h-P2X4 [6]): 5.73 ± 0.42 µM

# Source: patent US20230141034A1, “ADAMANTANE-1-CARBONYL THIOUREA, AS P2X RECEPTOR ANTAGONIST” (COMSATS UNIVERSITY ISLAMABAD, priority 2021, published 2023)
